Measurements: PMC11022538, “Antibacterial insights into alternariol and its derivative alternariol monomethyl ether produced by a marine fungus” (Applied and Environmental Microbiology, 2024)

Tests used:
Experiment in all cases: plasmid pCT74 unwinding, agarose gel
Type in all cases: biochemical
Conditions in all cases: AOH 4 µg/mL (Fig 6; 1 µg in a 20 µL reaction), 5 min pre-incubation, 37°C, Mg2+; qualitative inhibition; no ATP listed
Top4 = target: T1, Top4 (Staphylococcus aureus, UniProt Q99S17)
T1 construct: gene topB; full gene in pET28a, His-tagged, E. coli BL21(DE3), Ni column; tag kept
T1 sequence (Q99S17 whole entry): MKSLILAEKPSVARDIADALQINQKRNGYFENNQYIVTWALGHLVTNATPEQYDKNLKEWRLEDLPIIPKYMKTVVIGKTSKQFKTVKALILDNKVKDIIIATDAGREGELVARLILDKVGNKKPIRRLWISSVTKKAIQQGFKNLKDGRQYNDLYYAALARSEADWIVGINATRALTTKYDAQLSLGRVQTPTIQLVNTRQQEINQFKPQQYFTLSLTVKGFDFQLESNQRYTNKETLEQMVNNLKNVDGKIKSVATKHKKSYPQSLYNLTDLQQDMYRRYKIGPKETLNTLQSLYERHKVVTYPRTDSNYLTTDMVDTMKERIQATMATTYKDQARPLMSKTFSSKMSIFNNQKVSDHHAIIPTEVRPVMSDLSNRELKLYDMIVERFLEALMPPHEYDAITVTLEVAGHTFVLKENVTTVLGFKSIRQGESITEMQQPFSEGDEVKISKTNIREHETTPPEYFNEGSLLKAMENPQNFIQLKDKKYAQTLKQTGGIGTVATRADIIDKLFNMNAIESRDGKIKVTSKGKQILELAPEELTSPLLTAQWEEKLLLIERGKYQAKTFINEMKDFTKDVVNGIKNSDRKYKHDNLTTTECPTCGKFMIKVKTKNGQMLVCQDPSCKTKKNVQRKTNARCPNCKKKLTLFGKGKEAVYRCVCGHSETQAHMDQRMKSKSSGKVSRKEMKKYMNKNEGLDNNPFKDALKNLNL

Topc = target: T2, Topc (Staphylococcus aureus, UniProt P0A0K8+P20831)
T2 construct: gene gyrA; Top1 and Top2 combined; each in pET28a, His-tagged, E. coli BL21(DE3)
T2 sequence (P20831 whole entry): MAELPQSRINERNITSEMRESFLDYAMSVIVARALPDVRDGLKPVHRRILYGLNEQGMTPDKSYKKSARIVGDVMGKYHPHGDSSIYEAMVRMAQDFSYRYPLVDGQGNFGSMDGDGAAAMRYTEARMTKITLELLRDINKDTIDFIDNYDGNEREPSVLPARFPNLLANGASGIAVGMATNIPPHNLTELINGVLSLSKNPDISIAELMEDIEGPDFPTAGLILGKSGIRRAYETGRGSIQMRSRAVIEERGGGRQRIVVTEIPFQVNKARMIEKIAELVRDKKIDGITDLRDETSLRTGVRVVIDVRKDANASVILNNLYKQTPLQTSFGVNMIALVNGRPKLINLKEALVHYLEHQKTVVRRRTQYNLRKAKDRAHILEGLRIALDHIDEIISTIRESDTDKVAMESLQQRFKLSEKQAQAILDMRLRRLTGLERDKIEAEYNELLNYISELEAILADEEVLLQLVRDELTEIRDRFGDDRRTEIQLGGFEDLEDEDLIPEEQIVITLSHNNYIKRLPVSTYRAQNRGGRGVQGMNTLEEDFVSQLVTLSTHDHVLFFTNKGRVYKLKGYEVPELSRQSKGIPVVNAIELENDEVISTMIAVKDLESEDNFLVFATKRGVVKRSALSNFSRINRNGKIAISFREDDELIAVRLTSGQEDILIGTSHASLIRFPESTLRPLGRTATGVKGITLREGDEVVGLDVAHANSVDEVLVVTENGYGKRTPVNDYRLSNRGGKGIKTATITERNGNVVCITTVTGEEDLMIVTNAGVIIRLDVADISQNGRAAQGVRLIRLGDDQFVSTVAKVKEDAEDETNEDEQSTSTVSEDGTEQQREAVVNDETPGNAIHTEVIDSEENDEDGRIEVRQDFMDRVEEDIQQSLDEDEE
T2 sequence (P0A0K8 2-644): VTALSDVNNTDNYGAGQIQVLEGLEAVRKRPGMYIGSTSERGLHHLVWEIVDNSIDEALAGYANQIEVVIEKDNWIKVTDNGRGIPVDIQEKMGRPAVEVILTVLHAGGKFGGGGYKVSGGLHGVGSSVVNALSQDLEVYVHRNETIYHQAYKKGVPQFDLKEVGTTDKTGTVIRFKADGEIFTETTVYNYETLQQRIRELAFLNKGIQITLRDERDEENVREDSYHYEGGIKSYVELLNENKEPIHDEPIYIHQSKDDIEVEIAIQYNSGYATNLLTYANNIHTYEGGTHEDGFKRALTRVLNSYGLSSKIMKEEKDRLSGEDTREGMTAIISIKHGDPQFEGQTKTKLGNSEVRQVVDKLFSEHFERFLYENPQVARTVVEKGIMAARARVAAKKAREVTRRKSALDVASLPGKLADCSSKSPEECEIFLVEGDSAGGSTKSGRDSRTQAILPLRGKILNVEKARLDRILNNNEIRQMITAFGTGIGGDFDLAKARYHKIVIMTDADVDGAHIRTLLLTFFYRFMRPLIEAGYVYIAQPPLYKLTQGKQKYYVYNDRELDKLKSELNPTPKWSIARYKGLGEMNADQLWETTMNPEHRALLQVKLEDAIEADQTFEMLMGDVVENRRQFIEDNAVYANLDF

Top1 = target: T3, Top1 (Staphylococcus aureus, UniProt P20831)
T3 construct: gene gyrA; full gene in pET28a, His-tagged, E. coli BL21(DE3), Ni column; tag kept
T3 sequence (P20831 whole entry): as the sequence (P20831 whole entry) above

Top3 = target: T4, Top3 (Staphylococcus aureus, UniProt Q5HGI2)
T4 construct: gene topA; full gene in pET28a, His-tagged, E. coli BL21(DE3), Ni column; tag kept
T4 sequence (Q5HGI2 whole entry): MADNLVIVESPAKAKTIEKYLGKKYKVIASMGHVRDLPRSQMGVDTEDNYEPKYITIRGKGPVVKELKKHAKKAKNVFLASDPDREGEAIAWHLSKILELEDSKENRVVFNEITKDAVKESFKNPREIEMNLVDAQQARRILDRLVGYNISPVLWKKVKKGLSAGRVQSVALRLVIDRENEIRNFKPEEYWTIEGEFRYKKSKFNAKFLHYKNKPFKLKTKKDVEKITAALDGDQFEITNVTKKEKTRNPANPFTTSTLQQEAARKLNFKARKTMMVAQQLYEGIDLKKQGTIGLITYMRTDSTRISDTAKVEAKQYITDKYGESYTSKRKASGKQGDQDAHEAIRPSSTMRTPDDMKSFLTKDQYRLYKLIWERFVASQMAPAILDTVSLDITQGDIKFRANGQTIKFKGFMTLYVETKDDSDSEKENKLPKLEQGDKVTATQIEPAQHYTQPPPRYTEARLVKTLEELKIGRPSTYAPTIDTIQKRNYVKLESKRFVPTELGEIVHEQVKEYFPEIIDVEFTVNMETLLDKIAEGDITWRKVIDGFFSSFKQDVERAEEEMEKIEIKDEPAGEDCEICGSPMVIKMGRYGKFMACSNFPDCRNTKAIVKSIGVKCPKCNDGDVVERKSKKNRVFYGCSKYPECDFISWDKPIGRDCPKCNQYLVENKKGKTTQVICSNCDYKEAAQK

Compound: Cc1cc(O)cc2oc(=O)c3c(O)cc(O)cc3c12 [compound 1, alternariol]
- plasmid pCT74 unwinding, agarose gel (Top4): AOH effectively blocked the unwinding activities of the above four topoisomerases
- plasmid pCT74 unwinding, agarose gel (Topc): AOH effectively blocked the unwinding activities of the above four topoisomerases
- plasmid pCT74 unwinding, agarose gel (Top1): AOH effectively blocked the unwinding activities of the above four topoisomerases
- plasmid pCT74 unwinding, agarose gel (Top3): AOH effectively blocked the unwinding activities of the above four topoisomerases
